This note sets out measurements from ChEMBL document CHEMBL5550222, “Synthesis and Biological Evaluation of Novel Psidium Meroterpenoid Derivatives against Cisplatin-Induced Acute Kidney Injury” (J Med Chem, 2024).

The source made the active and inactive calls. No cut-off for these calls is given here.

The subject of data set [1] is HK-2. As to the kind of experiment: Effect on ATP7A mRNA level in human HK-2 cells by transcriptome sequencing analysis. It counts as functional, cell-based. The settings on record: dose 2.5-10 µM.
The test system of data set [2] is HK-2. Kind of data set: Protection against cisplatin-induced nephrotoxicity in human HK-2 cells assessed as cell viability at 5 uM preincubated with compound for 2 hrs followed by cisplatin induction and measured after 72 hrs by MTT assay (reference value: 45.1 +/- 3.2%). It counts as functional. The settings on record: time 74 hrs, read-out: Activity.
Another data set relates to Lewis lung carcinoma. As to the kind of experiment: Antitumor activity against cisplatin-induced mouse Lewis lung carcinoma cell line xenografted C57BL/6J mouse assessed as reduction in tumor mass at 25 to 100 mg/kg, po preadministered with compound for 2 days followed by cisplatin addition on day 3 and measured 72 hrs post cisplatin administration. It counts as functional, organism-based. To be noted: dose 25-100 mg/kg, time 5.0 day.

Data set [3] has as its system HK-2. As to the kind of experiment: Protection against cisplatin-induced nephrotoxicity in human HK-2 cells increase in viability at 10 uM preincubated with compound for 2 hrs followed by cisplatin induction and measured after 72 hrs by MTT assay (reference value: 45.1%). The settings on record: time 74 hrs. It counts as functional. For orientation: Formazan colour is commonly taken as a measure of viable cells.

Data set [4] relates to HK-2. As to the kind of experiment: Upregulation of PI3K gene expression in human HK-2 cells by KEGG analysis. In kind it is functional, cell-based.
For data set [5], the system named is HK-2. Kind of data set: Induction of autophagy in human HK-2 cells assessed as upregulation of p62 expression at 2.5 to 10 uM by Western blotting analysis. It counts as functional, cell-based. To be noted: dose 2.5-10 µM. A general note: Immunoblotting shows a protein as a band on a membrane.
For a further data set, the system named is HCT-116. Kind of data set: Cytotoxicity against human HCT-116 cells. It counts as functional, cell-based.
Data set [6] relates to HK-2. Kind of data set: Protection against cisplatin-induced nephrotoxicity in human HK-2 cells assessed as cell viability at 10 uM preincubated with compound for 2 hrs followed by cisplatin induction and measured after 72 hrs by MTT assay (reference value: 45.1 +/- 3.2%). It counts as functional. To be noted: time 74 hrs, read-out: Activity.
A short description of data set [7]: Cytotoxicity against human HK-2 cells incubated for 72 hrs by MTT assay. It counts as toxicity, cell-based.
The subject of data set [8] is HK-2. Kind of data set: Protection against cisplatin-induced nephrotoxicity in human HK-2 cells at 5 to 10 uM preincubated with compound for 2 hrs followed by cisplatin induction and measured after 72 hrs by MTT assay. In kind it is functional, cell-based. The settings on record: dose 5-10 µM, time 74.0 hrs.
The subject of data set [9] is HK-2. Kind of data set: Protection against cisplatin-induced nephrotoxicity in human HK-2 cells preincubated with compound for 2 hrs followed by cisplatin induction and measured after 72 hrs by MTT assay. The settings on record: dose 1-10 µM, time 74.0 hrs. In kind it is functional, cell-based.
Data set [10] can be described thus: Volume of distribution in ICR mouse 1 mg/kg, iv measured for 24 hrs by HPLC-MS analysis. In kind it is ADME, organism-based. The settings on record: in vivo.
Data set [11] is described as follows: AUC (0 to infinity) in ICR mouse 50 mg/kg, po measured for 24 hrs by HPLC-MS analysis. In kind it is ADME, organism-based. The settings on record: in vivo.
Data set [12] can be described thus: Acute toxicity in C57BL/6J mouse assessed as animal death at 1 g/Kg, po measured for 2 weeks. It counts as organism-based. To be noted: in vivo, 1000 mg/kg, 336 h.
A short description of data set [13]: AUC (0 to infinity) in ICR mouse 1 mg/kg, iv measured for 24 hrs by HPLC-MS analysis. In kind it is ADME, organism-based. The settings on record: in vivo.
Data set [14] deals with Mus musculus. Kind of data set: Protection against cisplatin-induced nephrotoxicity in C57BL6/J mouse assessed as reduction in SCR level in kidney at 100 mg/kg, po preadministered with compound for 2 days followed by cisplatin addition on day 3 and measured 72 hrs post cisplatin administration. It counts as functional, organism-based. To be noted: time 5.0 day.
Data set [15] in a line: Acute toxicity in C57BL/6J mouse assessed as spleen damage at 1 g/Kg, po measured for 2 weeks by H and E staining based analysis. It counts as organism-based. The settings on record: in vivo, 1000 mg/kg, 336 h.
Data set [16] can be described thus: Acute toxicity in C57BL/6J mouse assessed as liver damage at 1 g/Kg, po measured for 2 weeks by H and E staining based analysis. In kind it is organism-based. To be noted: in vivo, 1000 mg/kg, 336 h.
A short description of data set [17]: MRT (0 to infinity) in ICR mouse 50 mg/kg, po measured for 24 hrs by HPLC-MS analysis. The settings on record: in vivo. It counts as ADME, organism-based.
Data set [18] in a line: Oral bioavailability in ICR mouse 50 mg/kg measured for 24 hrs by HPLC-MS analysis. In kind it is ADME, organism-based. To be noted: in vivo.
Data set [19] can be described thus: Acute toxicity in C57BL/6J mouse assessed as lung damage at 1 g/Kg, po measured for 2 weeks by H and E staining based analysis. It counts as organism-based. The settings on record: in vivo, 1000 mg/kg, 336 h.
The subject of data set [20] is Mus musculus. As to the kind of experiment: Protection against cisplatin-induced nephrotoxicity in C57BL6/J mouse assessed as reduction in BUN level in kidney at 100 mg/kg, po preadministered with compound for 2 days followed by cisplatin addition on day 3 and measured 72 hrs post cisplatin administration. It counts as functional, organism-based. The settings on record: time 5.0 day.

The nature of data set [21]: Cmax in ICR mouse 50 mg/kg, po measured for 24 hrs by HPLC-MS analysis. It counts as ADME, organism-based. The settings on record: in vivo.
The nature of data set [22]: Acute toxicity in C57BL/6J mouse assessed as heart damage at 1 g/Kg, po measured for 2 weeks by H and E staining based analysis. In kind it is organism-based. The settings on record: in vivo, 1000 mg/kg, 336 h.
Data set [23] can be described thus: Acute toxicity in C57BL/6J mouse assessed as abnormal behavior at 1 g/Kg, po measured for 2 weeks. It counts as organism-based. To be noted: in vivo, 1000 mg/kg, 336 h.
Data set [24] is described as follows: Terminal half life in ICR mouse 1 mg/kg, iv measured for 24 hrs by HPLC-MS analysis. In kind it is ADME, organism-based. The settings on record: in vivo, read-out: beta t1/2 (converted).
The nature of data set [25]: MRT (0 to infinity) in ICR mouse 1 mg/kg, iv measured for 24 hrs by HPLC-MS analysis. The settings on record: in vivo. In kind it is ADME, organism-based.
The nature of data set [26]: Acute toxicity in C57BL/6J mouse assessed as kidney damage at 1 g/Kg, po measured for 2 weeks by H and E staining based analysis. In kind it is organism-based. To be noted: in vivo, 1000 mg/kg, 336 h.
Data set [27] concerns HK-2. As to the kind of experiment: Protection against cisplatin-induced nephrotoxicity in human HK-2 cells at 1 to 10 uM preincubated with compound for 2 hrs followed by cisplatin induction and measured after 72 hrs by MTT assay. The settings on record: dose 1-10 µM, time 74.0 hrs. In kind it is functional, cell-based.
Data set [28] in a line: AUC (0 to t) in ICR mouse 50 mg/kg, po measured for 24 hrs by HPLC-MS analysis. In kind it is ADME, organism-based. The settings on record: in vivo.
Data set [29] can be described thus: Clearance in ICR mouse 1 mg/kg, iv measured for 24 hrs by HPLC-MS analysis. In kind it is ADME, organism-based. The settings on record: in vivo.
The nature of data set [30]: Terminal half life in ICR mouse 50 mg/kg, po measured for 24 hrs by HPLC-MS analysis. It counts as ADME, organism-based. To be noted: in vivo, read-out: beta t1/2 (converted).
Data set [31] can be described thus: MRT (0 to t) in ICR mouse 1 mg/kg, iv measured for 24 hrs by HPLC-MS analysis. It counts as ADME, organism-based. The settings on record: in vivo.
Data set [32] is described as follows: Acute toxicity in C57BL/6J mouse assessed as brain damage at 1 g/Kg, po measured for 2 weeks by H and E staining based analysis. To be noted: in vivo, 1000 mg/kg, 336 h. It counts as organism-based.
Data set [33] is described as follows: Acute toxicity in C57BL/6J mouse assessed as small intestine damage at 1 g/Kg, po measured for 2 weeks by H and E staining based analysis. In kind it is organism-based. To be noted: in vivo, 1000 mg/kg, 336 h.
A short description of data set [34]: AUC (0 to t) in ICR mouse 1 mg/kg, iv measured for 24 hrs by HPLC-MS analysis. In kind it is ADME, organism-based. The settings on record: in vivo.
Data set [35] can be described thus: Cmax in ICR mouse 1 mg/kg, iv measured for 24 hrs by HPLC-MS analysis. In kind it is ADME, organism-based. The settings on record: in vivo.
Data set [36] in a line: Acute toxicity in C57BL/6J mouse assessed as ovary damage at 1 g/Kg, po measured for 2 weeks by H and E staining based analysis. In kind it is organism-based. The settings on record: in vivo, 1000 mg/kg, 336 h.
A short description of data set [37]: Acute toxicity in C57BL/6J mouse assessed as stomach damage at 1 g/Kg, po measured for 2 weeks by H and E staining based analysis. It counts as organism-based. To be noted: in vivo, 1000 mg/kg, 336 h.
Data set [38] in a line: MRT (0 to t) in ICR mouse 50 mg/kg, po measured for 24 hrs by HPLC-MS analysis. In kind it is ADME, organism-based. To be noted: in vivo.

As for `COc1c(C=O)c(OC)c(C(=O)c2ccccc2)c2c1CC1CC/C(C)=C/CC(C)(C)/C=C/CC1(C)O2` (stereo not given), the Activity result in the data set on HK-2 [1] was “Dose-Dependent Effect”; with HK-2 [3], >90%; with HK-2 [9] it was “Dose-Dependent Effect”. In the data set on HK-2 [2], the viability at 5 µM stood at 82.8%. Further, the outcome in the data set with Lewis lung carcinoma, with HK-2 [4], in the data set with HK-2 [5], in the data set with HCT-116 and with HK-2 [8] was Active. In the data set on HK-2 [6], the viability at 10 µM came out at 90.6%. Further, the IC50 (in general, the concentration that gives 50% inhibition) at 72 h in [7] is > 10 µM.
For `COc1c(CO)c(OC)c(C(=O)c2ccccc2)c2c1C[C@H]1CC/C(C)=C/CC(C)(C)/C=C/C[C@]1(C)O2`, the Vd (commonly a proportionality between amount in the body and measured concentration, not a real space) in [10] amounted to 24.4 L/kg. Further, the Activity entry with HK-2 [1] was “Dose-Dependent Effect”; in data set [12] it was “Non-Toxic”; in data set [15], “Non-Toxic”; in [16], “Non-Toxic”; in data set [19] it was “Non-Toxic”; in data set [22], “Non-Toxic”. Further, the Activity result in [23], in data set [26], in data set [32], in data set [33], in data set [36] and in [37] was “Non-Toxic” each time. In addition, the AUC(0-inf) – broadly, total exposure, with the tail of the curve extrapolated – in data set [11] is 869 ng·h/mL; in data set [13] it was 146 ng·h/mL. Besides, the outcome with Lewis lung carcinoma, in the data set on Mus musculus [14], in the data set on HK-2 [4], in the data set with HK-2 [5], in the data set with Mus musculus [20] and with HCT-116 was Active. Further, the outcome with HK-2 [27] was Active. The values for the MRT inf in data set [17] and in data set [25] were 3.21 h and 2.22 h, respectively. Also, in data set [18], the bioavailability – broadly, dose-corrected exposure relative to a reference, in per cent – worked out at 11.9%. In addition, the Cmax (commonly the peak of the concentration-time curve) came out at 266 ng/mL in data set [21] and 485 ng/mL in data set [35]. For the same molecule, the half-life is 2.47 h in data set [24] and 2.5 h in [30]. Also, the values for the AUC(0-t) at 24 h in data set [28] and in data set [34] were 783 ng·h/mL and 137 ng·h/mL, respectively. Also, the clearance (as a rule, the rate of elimination divided by the concentration) in [29] was 114 mL/min/kg. The MRT last (commonly a mean duration of stay, worked out from the concentration-time curve) at 24 h in data set [31] worked out at 1.59 h; in [38], 2.29 h.
